From ChEMBL document CHEMBL3988442, “University of Dundee, Small-Polar-MMV Screening Library” (2021) come the findings set out here.

Molecules are shown by their SMILES. Values joined by “and” are separate entries in the source; they are usually repeats but may differ in a detail not shown here. Identical values can stand only once.

Test [1] deals with Lysine--tRNA ligase (Plasmodium falciparum (isolate 3D7), UniProt Q8IDJ8). The experiment in a line: Pf-KRS-1 (Lysyl-RNA Synthetase-1, KRS-1, cytosolic KRS) from Plasmodium falciparum. Inhibitor assay, 384 well plate, luminescence read. In kind it is functional.
Lysine--tRNA ligase, sequence (Q8IDJ8 whole entry): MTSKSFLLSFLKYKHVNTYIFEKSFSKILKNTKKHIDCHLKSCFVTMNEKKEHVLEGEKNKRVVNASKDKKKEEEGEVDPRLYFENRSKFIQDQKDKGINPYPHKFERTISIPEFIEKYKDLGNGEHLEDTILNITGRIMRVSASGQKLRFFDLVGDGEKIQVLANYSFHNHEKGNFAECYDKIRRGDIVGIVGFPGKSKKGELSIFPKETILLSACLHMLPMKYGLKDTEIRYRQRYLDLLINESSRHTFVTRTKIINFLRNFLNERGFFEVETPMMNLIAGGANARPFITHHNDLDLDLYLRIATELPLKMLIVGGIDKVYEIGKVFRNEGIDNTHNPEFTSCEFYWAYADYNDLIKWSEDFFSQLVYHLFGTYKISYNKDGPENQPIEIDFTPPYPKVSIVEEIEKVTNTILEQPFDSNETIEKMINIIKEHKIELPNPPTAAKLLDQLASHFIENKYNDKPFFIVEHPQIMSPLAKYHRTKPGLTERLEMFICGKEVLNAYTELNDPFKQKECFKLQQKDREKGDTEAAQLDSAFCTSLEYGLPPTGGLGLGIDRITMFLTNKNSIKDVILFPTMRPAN
Test [2] addresses Protein translocase subunit SecA (Escherichia coli (strain K12), UniProt P10408). In words: Assay to Identify E. coli SecA ATPase Inhibitors. The test is classed as functional.
Test [3] addresses T1, Aspartate--tRNA(Asp/Asn) ligase (Mycobacterium tuberculosis (strain ATCC 25618 / H37Rv), UniProt P9WFW3).
T1 sequence (P9WFW3 whole entry): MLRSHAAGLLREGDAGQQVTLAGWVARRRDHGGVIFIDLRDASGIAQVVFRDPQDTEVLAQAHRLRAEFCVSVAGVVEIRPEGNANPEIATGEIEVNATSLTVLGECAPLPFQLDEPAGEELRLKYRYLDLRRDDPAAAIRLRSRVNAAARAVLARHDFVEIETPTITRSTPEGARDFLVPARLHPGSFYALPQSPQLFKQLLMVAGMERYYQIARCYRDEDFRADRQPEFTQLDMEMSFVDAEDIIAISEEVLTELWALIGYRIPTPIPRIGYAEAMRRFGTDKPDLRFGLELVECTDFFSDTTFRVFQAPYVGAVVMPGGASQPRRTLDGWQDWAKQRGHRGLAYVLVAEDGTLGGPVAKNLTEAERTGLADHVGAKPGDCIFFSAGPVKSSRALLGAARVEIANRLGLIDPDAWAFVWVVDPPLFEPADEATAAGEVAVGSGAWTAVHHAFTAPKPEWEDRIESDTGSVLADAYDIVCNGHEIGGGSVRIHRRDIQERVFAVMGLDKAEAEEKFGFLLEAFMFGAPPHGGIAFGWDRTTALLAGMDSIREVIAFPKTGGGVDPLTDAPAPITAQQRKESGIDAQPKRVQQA
The experiment in a line: Assay for Asp RNA synthetase-1 from Mycobacterium tuberculosis. The test is classed as functional.

In test [4] the target is T2, Histidine--tRNA ligase (Trypanosoma cruzi (strain CL Brener), UniProt Q4DA54).
T2 sequence (Q4DA54 whole entry): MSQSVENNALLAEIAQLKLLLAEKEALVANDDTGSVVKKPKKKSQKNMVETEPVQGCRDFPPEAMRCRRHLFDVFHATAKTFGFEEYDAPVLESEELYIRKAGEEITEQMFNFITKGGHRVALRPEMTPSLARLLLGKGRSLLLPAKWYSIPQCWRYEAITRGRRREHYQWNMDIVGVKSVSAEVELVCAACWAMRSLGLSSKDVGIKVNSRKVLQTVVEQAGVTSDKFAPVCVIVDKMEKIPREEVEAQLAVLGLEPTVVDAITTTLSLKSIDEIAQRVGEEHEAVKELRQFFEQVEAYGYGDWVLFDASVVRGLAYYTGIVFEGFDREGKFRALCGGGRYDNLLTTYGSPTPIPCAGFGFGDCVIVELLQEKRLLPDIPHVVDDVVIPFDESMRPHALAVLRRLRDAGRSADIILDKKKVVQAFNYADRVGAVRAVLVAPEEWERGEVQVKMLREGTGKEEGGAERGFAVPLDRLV
In words: Trypanosoma cruzi histidyl tRNA synthetase (Tc-HisRS). The test is classed as functional.

Test [5] concerns the target T3, Histidine--tRNA ligase (Leishmania infantum, UniProt A4I591).
T3 sequence (A4I591 whole entry): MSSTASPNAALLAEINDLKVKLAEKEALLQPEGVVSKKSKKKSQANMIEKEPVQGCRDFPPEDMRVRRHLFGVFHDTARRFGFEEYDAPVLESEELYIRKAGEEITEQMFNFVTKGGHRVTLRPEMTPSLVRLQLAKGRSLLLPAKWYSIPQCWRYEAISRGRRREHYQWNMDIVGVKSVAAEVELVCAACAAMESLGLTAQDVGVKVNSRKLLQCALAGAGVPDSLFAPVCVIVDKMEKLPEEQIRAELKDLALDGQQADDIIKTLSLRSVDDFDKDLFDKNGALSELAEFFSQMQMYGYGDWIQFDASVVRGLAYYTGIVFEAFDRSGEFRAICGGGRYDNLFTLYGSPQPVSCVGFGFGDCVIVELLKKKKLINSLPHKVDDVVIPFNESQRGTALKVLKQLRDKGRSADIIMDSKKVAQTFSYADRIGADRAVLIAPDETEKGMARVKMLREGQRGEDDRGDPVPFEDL
The experiment in a line: Leishmania infantum Histidine tRNA synthetase (LdHisRS). The test is classed as functional.

For test [6], the target named is T4, Ubiquitin-activating enzyme e1, putative (Leishmania donovani (strain BPK282A1), UniProt E9BSI1).
T4 sequence (E9BSI1 whole entry): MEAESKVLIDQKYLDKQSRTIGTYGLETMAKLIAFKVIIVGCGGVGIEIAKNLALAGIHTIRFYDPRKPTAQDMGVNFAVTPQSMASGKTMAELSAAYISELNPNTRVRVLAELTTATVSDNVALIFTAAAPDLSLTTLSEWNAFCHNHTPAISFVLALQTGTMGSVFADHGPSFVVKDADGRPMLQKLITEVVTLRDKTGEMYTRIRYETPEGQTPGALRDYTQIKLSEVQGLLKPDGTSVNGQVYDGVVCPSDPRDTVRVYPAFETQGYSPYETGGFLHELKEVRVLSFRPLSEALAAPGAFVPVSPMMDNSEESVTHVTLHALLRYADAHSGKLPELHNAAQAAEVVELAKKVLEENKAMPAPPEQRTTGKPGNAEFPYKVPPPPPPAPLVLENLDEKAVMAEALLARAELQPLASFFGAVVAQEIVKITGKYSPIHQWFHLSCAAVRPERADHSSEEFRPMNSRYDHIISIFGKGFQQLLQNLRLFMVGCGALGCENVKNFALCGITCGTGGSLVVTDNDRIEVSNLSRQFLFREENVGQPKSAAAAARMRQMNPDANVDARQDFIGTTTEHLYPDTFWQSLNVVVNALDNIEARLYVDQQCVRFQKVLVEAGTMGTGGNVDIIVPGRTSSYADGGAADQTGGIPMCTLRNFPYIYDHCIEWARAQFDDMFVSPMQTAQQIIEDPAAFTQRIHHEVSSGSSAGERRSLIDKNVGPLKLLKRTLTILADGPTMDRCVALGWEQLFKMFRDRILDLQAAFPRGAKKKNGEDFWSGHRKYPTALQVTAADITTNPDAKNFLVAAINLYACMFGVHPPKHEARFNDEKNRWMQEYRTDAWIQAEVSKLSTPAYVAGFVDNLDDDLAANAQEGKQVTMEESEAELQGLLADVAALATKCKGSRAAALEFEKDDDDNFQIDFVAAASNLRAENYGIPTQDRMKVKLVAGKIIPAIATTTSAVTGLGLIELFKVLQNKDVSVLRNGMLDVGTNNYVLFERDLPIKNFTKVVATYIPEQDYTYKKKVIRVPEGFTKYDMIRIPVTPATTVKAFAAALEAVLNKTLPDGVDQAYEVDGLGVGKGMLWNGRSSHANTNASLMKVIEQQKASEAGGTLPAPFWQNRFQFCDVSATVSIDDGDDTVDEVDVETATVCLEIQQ
The experiment in a line: Leishmania donovani Ubiquitin Activating Enzyme (LdE1). The test is classed as functional.

A short description of test [7]: microbe, parasite or virus in culture. As to conditions: Mycobacterium tuberculosis, 96 h, read-out: pIC50 (converted).
The nature of test [8]: microbe, parasite or virus in culture. As to conditions: Mycobacterium tuberculosis, 72 h, read-out: pIC50 (converted).
In test [9] the target is T5, Coenzyme A biosynthesis bifunctional protein CoaBC (Mycobacterium tuberculosis (strain ATCC 25618 / H37Rv), UniProt P9WNZ1).
T5 sequence (P9WNZ1 whole entry): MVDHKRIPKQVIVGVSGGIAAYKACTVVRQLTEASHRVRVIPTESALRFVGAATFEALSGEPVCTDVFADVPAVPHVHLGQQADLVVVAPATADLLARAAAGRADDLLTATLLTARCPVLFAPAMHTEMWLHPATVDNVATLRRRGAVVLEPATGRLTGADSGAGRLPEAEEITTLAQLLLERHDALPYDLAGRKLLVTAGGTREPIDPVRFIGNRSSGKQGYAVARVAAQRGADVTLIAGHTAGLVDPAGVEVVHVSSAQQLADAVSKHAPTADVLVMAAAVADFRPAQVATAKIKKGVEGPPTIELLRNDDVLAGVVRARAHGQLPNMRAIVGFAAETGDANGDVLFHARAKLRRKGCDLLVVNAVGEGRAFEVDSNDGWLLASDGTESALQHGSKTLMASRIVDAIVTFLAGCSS
The experiment in a line: Biomol Green assay for MtCoaBC inhibitor, OD650 read. The test is classed as functional.

Test [10] relates to Schistosoma mansoni. The experiment in a line: High throughput screening of compounds against Schistosoma mansoni motility. The test is classed as functional. More on the design: dose or concentration left out as unconfirmed.
Test [11] concerns the target Tryptophan--tRNA ligase (Mycobacterium tuberculosis (strain ATCC 25618 / H37Rv), UniProt P9WFT3). In words: Biochemical assay for Mt-TrpRS. The test is classed as functional.
Test [12] can be described thus: To identify inhibition of the IFN signalling (Jak-Stat) pathway via expression of an eGFP reporter gene under the control of an IFN-stimulated response element (ISRE) containing MxA promoter. In kind it is functional, Homo sapiens. A general note: A reporter such as luciferase makes a cellular process visible.

Protein translocase subunit SecA, sequence (P10408 whole entry): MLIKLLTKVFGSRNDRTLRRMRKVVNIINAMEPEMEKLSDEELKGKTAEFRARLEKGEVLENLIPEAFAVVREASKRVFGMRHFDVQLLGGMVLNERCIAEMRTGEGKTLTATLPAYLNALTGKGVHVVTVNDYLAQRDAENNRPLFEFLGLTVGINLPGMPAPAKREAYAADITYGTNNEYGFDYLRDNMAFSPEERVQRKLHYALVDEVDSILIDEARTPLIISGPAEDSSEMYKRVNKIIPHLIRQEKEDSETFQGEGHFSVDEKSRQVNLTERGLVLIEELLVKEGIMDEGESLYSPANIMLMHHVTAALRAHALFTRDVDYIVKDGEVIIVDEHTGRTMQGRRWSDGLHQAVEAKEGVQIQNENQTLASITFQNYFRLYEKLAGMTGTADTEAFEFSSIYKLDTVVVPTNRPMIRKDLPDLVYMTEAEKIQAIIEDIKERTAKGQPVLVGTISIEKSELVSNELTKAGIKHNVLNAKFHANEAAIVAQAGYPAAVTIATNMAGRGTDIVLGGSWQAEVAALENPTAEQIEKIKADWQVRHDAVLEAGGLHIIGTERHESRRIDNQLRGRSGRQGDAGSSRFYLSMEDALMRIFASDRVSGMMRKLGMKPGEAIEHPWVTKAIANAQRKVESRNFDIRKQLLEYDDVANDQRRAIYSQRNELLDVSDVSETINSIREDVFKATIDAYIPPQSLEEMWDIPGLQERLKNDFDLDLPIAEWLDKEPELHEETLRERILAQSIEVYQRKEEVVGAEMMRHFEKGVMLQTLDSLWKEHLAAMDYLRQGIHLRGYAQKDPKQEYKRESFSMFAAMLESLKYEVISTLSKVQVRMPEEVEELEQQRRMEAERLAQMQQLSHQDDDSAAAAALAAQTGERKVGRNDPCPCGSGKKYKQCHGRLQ
Tryptophan--tRNA ligase, sequence (P9WFT3 whole entry): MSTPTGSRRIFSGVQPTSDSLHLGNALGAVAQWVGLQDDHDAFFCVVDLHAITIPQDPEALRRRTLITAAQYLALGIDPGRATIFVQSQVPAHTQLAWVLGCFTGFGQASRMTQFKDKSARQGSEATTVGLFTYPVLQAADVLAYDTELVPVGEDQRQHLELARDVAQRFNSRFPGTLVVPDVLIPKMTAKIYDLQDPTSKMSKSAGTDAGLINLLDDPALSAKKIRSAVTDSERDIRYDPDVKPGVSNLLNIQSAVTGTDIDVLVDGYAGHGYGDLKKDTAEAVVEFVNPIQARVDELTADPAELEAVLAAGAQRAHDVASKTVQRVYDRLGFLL

As for `CNc1nc2c(s1)C(c1c(F)cccc1Cl)CC(=O)N2` (stereo not drawn), the IC50 in test [1] was greater than 50.1 µM; in test [2] it was 20.4 µM and 24.2 µM; in [3], 46.5 µM and 15.4 µM; in test [4], 20.4 µM and 19.2 µM; in test [5], 7.84 µM and 5.67 µM.
Turning to `COc1cccc(C2CC(=O)Nc3nc(N)sc32)c1OC` (stereo not drawn), the IC50 in test [1] is greater than 50.1 µM; in test [2], 9.52 µM and 9.23 µM; in test [6] it was 45.3 µM and 45 µM; in [3], 2.74 µM and 8.57 µM; in test [4], 3.98 µM and 3.84 µM; in test [5], 1.21 µM and 1.37 µM. The IC50 in [7] was 44.8 µM; in test [8] it was 42.2 µM.
For `CCC(C)CNc1ccc2oc(COC)nc2c1` (stereo not drawn), the IC50 in [1] is greater than 50.1 µM; in [6], greater than 100 µM; in [3], 36.7 µM and 47.3 µM; in [5] it was 11.1 µM and 14.1 µM; in [7], 34.4 µM; in [8] it was 49.1 µM.
For `COCc1nc2cc(NCc3ccncc3)ccc2o1`, the IC50 in [9] is greater than 50.1 µM; in test [6], 50.3 µM and 60.4 µM; in test [3] it was 11.6 µM and 26.4 µM; in test [5], 4.22 µM and 3.13 µM.
Consider `Cn1nc2c(cc1=O)CN(CC(=O)Nc1ccc(Cl)cn1)CC2`, for which the IC50 in [3] is 90 µM and > 100 µM; in test [5] it was 19 µM and 22.2 µM. In addition, in [10], the “Percent Effect” value was -19.3%.
For the compound `Cc1cc(CN2CCc3nn(C)c(=O)cc3C2)on1`, the IC50 is greater than 50.1 µM in [1]; greater than 100 µM in [3]; greater than 195 µM in [11]; 35.6 µM and 40.1 µM in [5]. For the same compound, the “Percent Effect” value in [10] is reported as -21.81%.
`COCCN(C)C(=O)Cn1cccc(OC)c1=O`: the IC50 in test [3] and in test [5] was greater than 100 µM throughout.
Take `CCCN(C(=O)c1ccccn1)c1nc2c(s1)CCc1c-2cnn1C`: the IC50 was greater than 50.1 µM in test [1]; greater than 100 µM in [6]; 27.3 µM and 35.3 µM in [3]; 18.7 µM and 14.4 µM in test [5].
Consider `Cn1cc(NC(=O)N2CCC(c3ccccc3)CC2)ccc1=O`, for which the IC50 was greater than 50.1 µM in [1]; greater than 100 µM in test [6]; 13.6 µM and 15.7 µM in [3]; 63 µM and 58.7 µM in [4]; 2.98 µM and 3.9 µM in test [5].
Turning to `CCn1nc2c(cc1=O)CN(Cc1nc(-c3ccccn3)no1)CC2`, the IC50 in [1] is greater than 50.1 µM; in test [3], greater than 100 µM; in test [5], 40 µM and 50.3 µM.
In general, pIC50 refers to the IC50 on a negative log10 scale, so that one unit is a factor of ten. As to `Cn1cc(NS(=O)(=O)c2ccc(OC(F)(F)F)cc2)ccc1=O`, the IC50 in [1] is greater than 50.1 µM; in test [3], 98.4 µM and 74.5 µM; in [5] it was 25.5 µM and 16.7 µM. In test [12], the negative-log IC50 (pIC50) is 5.067 and 4.969.
`Cn1nc2c(cc1=O)CN(Cc1nc(C(C)(C)C)no1)CC2`: the IC50 is greater than 50.1 µM in test [1]; greater than 100 µM in [3]; 25.4 µM and 17.9 µM in test [5].
In the case of `Cc1ccc(-c2nc(CN3CCc4nn(C)c(=O)cc4C3)co2)cc1`, the IC50 was greater than 100 µM in test [6]; > 100 µM and 52.7 µM in [3]; 14.2 µM and 25.1 µM in test [5].
Turning to `Cn1nc2c(cc1=O)CN(Cc1coc(-c3cccs3)n1)CC2`, the IC50 in test [6] was greater than 100 µM; in test [3] it was 51.7 µM and 65.4 µM; in test [5], 13.1 µM and 11.1 µM.
As for `Cn1nc2c(cc1=O)CN(Cc1nnc(C3CC3)o1)CC2`, the IC50 is greater than 30.2 µM in test [9]; greater than 50.1 µM in [1]; greater than 100 µM in test [6]; 77.5 µM and > 100 µM in test [3]; 17.5 µM and 14.6 µM in test [5].
